From patent US11753407B2, “Compounds for treating spinal muscular atrophy” (PTC Therapeutics, Inc., priority 2012, dated 2023) come the findings set out here.

Experiment [1] relates to SMN2 minigene mRNA (SMN2-A minigene) in HEK293H cells. Put plainly: SMN2 minigene mRNA splicing RT-qPCR assay in cultured cells. It is filed as cell-based, human. To be noted: Homo sapiens, HEK293-H; concentration increasing full length SMN2 mRNA 1.5-fold relative to vehicle-treated cells; HEK293H cells with SMN2-A minigene, 24 hours, 7-point concentration data; read-out: EC1.5x for production of full length SMN2 mRNA. The method, then:
The reverse transcription-quantitative PCR-based (RT-qPCR) assay is used to quantify the level of the full length SMN2 minigene mRNA containing SMN2 exon 7 in a HEK293H cell line stably transfected with said minigene and treated with a test compound.
Protocol. HEK293H cells stably transfected with the SMN2-A minigene construct described above (10,000 cells/well) are seeded in 200 μL of cell culture medium (DMEM plus 10% FBS, with 200 μg/mL hygromycin) in 96-well flat-bottom plates and the plate is immediately swirled to ensure proper dispersal of cells, forming an even monolayer of cells. Cells are allowed to attach for at least 4-6 hours. Test compounds are serially diluted 3.16-fold in 100% DMSO to generate a 7-point concentration curve. A solution of test compound (1 μL, 200× in DMSO) is added to each cell-containing well and the plate is incubated for 24 hours in a cell culture incubator (37° C., 5% CO2, 100% relative humidity). 2 replicates are prepared for each test compound concentration. The cells are then lysed in Cells-To-Ct lysis buffer and the lysate is stored at −80° C.
Primer SMN Forward A (SEQ ID NO. 1) hybridizes to a nucleotide sequence in exon 7 (nucleotide 22 to nucleotide 40), primer SMN Reverse A (SEQ ID NO. 2) hybridizes to a nucleotide sequence in the coding sequence of Firefly luciferase, SMN Probe A (SEQ ID NO. 3) hybridizes to a nucleotide sequence in exon 7 (nucleotide 50 to nucleotide 54) and exon 8 (nucleotide 1 to nucleotide 21). The combination of these three oligonucleotides detects only SMN1 or SMN2 minigenes (RT-qPCR) and will not detect endogenous SMN1 or SMN2 genes.
The SMN forward and reverse primers are used at final concentrations of 0.4 μM. The SMN probe is used at a final concentration of 0.15 μM. The GAPDH primers are used at final concentrations of 0.2 μM and the probe at 0.15 μM.
The SMN2-minigene GAPDH mix (15 μL total volume) is prepared by combining 7.5 μL of 2× RT-PCR buffer, 0.4 μL of 25× RT-PCR enzyme mix, 0.75 μL of 20× GAPDH primer-probe mix, 4.0075 μL of water, 2 μL of 10-fold diluted cell lysate, 0.06 μL of 100 μM SMN forward primer, 0.06 μL of 100 μM SMN reverse primer, and […].
PCR is carried out at the following temperatures for the indicated time: Step 1: 48° C. (15 min); Step 2: 95° C. (10 min); Step 3: 95° C. (15 sec); Step 4: 60° C. (1 min); then repeat Steps 3 and 4 for a total of 40 cycles.
Each reaction mixture contains both SMN2-A minigene and GAPDH primers/probe sets (multiplex design), allowing simultaneous measurement of the levels of two transcripts.
Two SMN spliced products are generated from the SMN2 minigene. The first spliced product containing exon 7, corresponding to full length SMN2 mRNA, is referred to herein using the term “SMN2 minigene FL.” The second spliced product lacking exon 7 is referred to herein using the term “SMN2 minigene Δ7.”
The increase of SMN2 minigene FL mRNA relative to that in cells treated with vehicle control is determined from real-time PCR data using a modified ΔΔCt method (as described in Livak and Schmittgen, Methods, 2001, 25:402-8). The amplification efficiency (E) is calculated from the slope of the amplification curve for SMN2 minigene FL and GAPDH individually. The abundances of SMN2 minigene FL and GAPDH are then calculated as (1+E)^−Ct, where Ct is the threshold value for each amplicon. The abundance of SMN2 minigene FL is normalized to GAPDH abundance. The normalized SMN2 minigene FL abundance from test compound-treated samples is then divided by normalized SMN2 minigene FL abundance from vehicle-treated cells to determine the level of SMN2 FL mRNA relative to vehicle control.
For compounds of Formula (I) or a form thereof disclosed herein, Table 4 provides the […] for production of full length SMN2 mRNA that was obtained from the 7-point concentration data generated for each test compound according to the procedure of Biological Example 2. […]

Experiment [2] deals with Smn protein in SMA patient fibroblast cells (GM03813). The experiment in a line: Smn protein assay in cultured cells (SMN HTRF). The class given is cell-based, human. To be noted: SMA patient fibroblast cells, 48 hours; for EC1.5x for Smn protein expression: 7-point concentration curve, SMN HTRF, concentration producing 1.5 times Smn protein vs DMSO vehicle control; for maximum fold (Fold) increase of Smn protein: 7-point concentration data, fold relative to vehicle control. The method, then:
The SMN HTRF (homogeneous time resolved fluorescence) assay is used to quantify the level of Smn protein in SMA patient fibroblast cells treated with test compounds.
Protocol. Cells are thawed and cultured in DMEM-10% FBS for 72 hours. Cells are trypsinized, counted and re-suspended to a concentration of 25,000 cells/mL in DMEM-10% FBS. The cell suspension is plated at 5,000 cells per well in a 96 well microtiter plate and incubated for 3 to 5 hours. […] Test compounds are serially diluted 3.16-fold in 100% DMSO to generate a 7-point concentration curve. 1 μL of test compound solution is transferred to cell-containing wells and cells are incubated for 48 hours in a cell culture incubator (37° C., 5% CO2, 100% relative humidity). Triplicate samples are set up for each test compound concentration. After 48 hours, the supernatant is removed from the wells and 25 μL of the RIPA lysis buffer, containing protease inhibitors, is added to the wells and incubated with shaking at room temperature for 1 hour. 25 μL of the diluent is added and then 35 μL of the resulting lysate is transferred to a 384-well plate, where each well contains 5 μL of the antibody solution (1:100 dilution of anti-SMN d2 and anti-SMN kryptate in SMN reconstitution buffer). The plate is centrifuged for 1 minute to bring the solution to the bottom of the wells, then incubated overnight at room temperature. Fluorescence for each well of the plate at 665 nm and 620 nm is measured on an EnVision multilabel plate reader (Perkin-Elmer).
The normalized fluorescence signal is calculated for each sample, Blank and vehicle control well by dividing the signal at 665 nm by the signal at 620 nm. Normalizing the signal accounts for possible fluorescence quenching due to the matrix effect of the lysate. The ΔF value (a measurement of Smn protein abundance as a percent value) for each sample well is calculated by subtracting the normalized average fluorescence for the Blank control wells from the normalized fluorescence for each sample well, then dividing this difference by the normalized average fluorescence for the Blank control wells and multiplying the resulting value by 100. The ΔF value for each sample well represents the Smn protein abundance from test compound-treated samples. The ΔF value for each sample well is divided by the ΔF value for the vehicle control wells to calculate the fold increase in Smn protein abundance relative to the vehicle control.
For compounds of Formula (I) or a form thereof disclosed herein, Table 9 provides the EC1.5× for Smn protein expression that was obtained from the 7-point concentration data generated for each test compound according to the procedure of Biological Example 7. The term “EC1.5× for Smn protein expression” is defined as that concentration of test compound that is effective in producing 1.5 times the amount of Smn protein in an SMA patient fibroblast cell compared to the amount produced from the DMSO vehicle control. An EC1.5× for Smn protein expression between >3 μM and ≤10 μM is indicated by one star (*), an EC1.5× between >1 μM and ≤3 μM is indicated by two stars (**), an EC1.5× between >0.3 μM and ≤1 μM is indicated by three stars (***) and an EC1.5x≤0.3 μM is indicated by four stars (****).
For compounds of Formula (I) or a form thereof disclosed herein, Table 10 provides the maximum fold (Fold) increase of Smn protein that was obtained from the 7-point concentration data generated for each test compound according to the procedure of Biological Example 7. A maximum fold increase of ≤1.2 is indicated by one star (*), a fold increase between >1.2 and ≤1.35 is indicated by two stars (**), a fold increase between >1.35 and ≤1.5 is indicated by three stars (***), a fold increase between >1.5 and ≤1.65 is indicated by four stars (****) and a fold increase >1.65 is indicated by five stars (*****).
(Time-resolved FRET reads energy transfer from a long-lived donor to a nearby acceptor.)

The structures appear in SMILES notation.

On to `CN1CCN(c2ccc3nc(-c4ccc5nccn5c4)cc(=O)n3c2)CC1` [Compound 802, 2-(imidazo[1,2-a]pyridin-6-yl)-7-(4-methylpiperazin-1-yl)-4H-pyrido[1,2-a]pyrimidin-4-one], for which the EC (1.5-fold increase) in experiment [1] fell in the range of 1 to 3 µM. In addition, in experiment [2], the “EC1.5x for Smn protein expression” value is “* (An EC1.5× for Smn protein expression between >3 μM and ≤10 μM is indicated by one star (*))”; the “maximum fold (Fold) increase of Smn protein” value (“maximum fold (Fold) increase” below) was “***** (a fold increase >1.65 is indicated by five stars (*****))”.
For `Cc1cn2cc(-c3cc(=O)n4cc(N5CCN6CCC[C@H]6C5)ccc4n3)cc(C)c2n1` [Compound 820, 2-(2,8-dimethylimidazo[1,2-a]pyridin-6-yl)-7-[(8aS)-hexahydropyrrolo[1,2-a]pyrazin-2(1H)-yl]-4H-pyrido[1,2-a]pyrimidin-4-one], the EC (1.5-fold increase) in experiment [1] was less than 0.1 µM. Moreover, in experiment [2], the “EC1.5x for Smn protein expression” value was “**** (an EC1.5x≤0.3 μM is indicated by four stars (****))” and the “maximum fold (Fold) increase” value is recorded as “***** (a fold increase >1.65 is indicated by five stars (*****))”.
For the compound `COc1ccc(-c2cc(=O)n3cc(N4CCNC[C@H]4C)ccc3n2)cc1OC` [Compound 321, 2-(3,4-dimethoxyphenyl)-7-[(2R)-2-methylpiperazin-1-yl]-4H-pyrido[1,2-a]pyrimidin-4-one], the EC (1.5-fold increase) in experiment [1] was in the range of 1 to 3 µM. Also, the “maximum fold (Fold) increase” value in experiment [2] was “*** (a fold increase between >1.35 and ≤1.5 is indicated by three stars (***))”.
For `CCc1nc(C)cn2nc(-c3cc(=O)n4cc(NCCN(C)C)ccc4n3)cc12` [Compound 824, 7-{[2-(dimethylamino)ethyl]amino}-2-(4-ethyl-6-methylpyrazolo[1,5-a]pyrazin-2-yl)-4H-pyrido[1,2-a]pyrimidin-4-one], the EC (1.5-fold increase) in experiment [1] lay in the range of 0.3 to 1 µM. In experiment [2], the “EC1.5x for Smn protein expression” value is “* (An EC1.5× for Smn protein expression between >3 μM and ≤10 μM is indicated by one star (*))”; the “maximum fold (Fold) increase” value was “**** (a fold increase between >1.5 and ≤1.65 is indicated by four stars (****))”.
Regarding `COc1cccc(-c2cc(=O)n3cc(N4CCCNCC4)ccc3n2)c1` [Compound 27, 7-(1,4-diazepan-1-yl)-2-(3-methoxyphenyl)-4H-pyrido[1,2-a]pyrimidin-4-one], in experiment [1], the EC (1.5-fold increase) was in the range of 3 to 30 µM. Also, the “maximum fold (Fold) increase” value in experiment [2] is “* (A maximum fold increase of ≤1.2 is indicated by one star (*))”.
In the case of `O=c1cc(-c2ccc3nccn3c2)nc2ccc(N3CCNCC3)cn12` [Compound 108, 2-(imidazo[1,2-a]pyridin-6-yl)-7-(piperazin-1-yl)-4H-pyrido[1,2-a]pyrimidin-4-one], the EC (1.5-fold increase) in experiment [1] is 0.1 to 0.3 µM. The “maximum fold (Fold) increase” value in experiment [2] is “*** (a fold increase between >1.35 and ≤1.5 is indicated by three stars (***))”.
For `COc1ccc(-c2cc(=O)n3cc(N4CCNC(C)(C)C4)ccc3n2)cc1` [Compound 17, 7-(3,3-dimethylpiperazin-1-yl)-2-(4-methoxyphenyl)-4H-pyrido[1,2-a]pyrimidin-4-one], the EC (1.5-fold increase) in experiment [1] lay within 1 to 3 µM. Besides, the “maximum fold (Fold) increase” value in experiment [2] is listed as “* (A maximum fold increase of ≤1.2 is indicated by one star (*))”.
For `CCc1nc(C)cn2nc(-c3cc(=O)n4cc(N5CC[C@H](N(C)C)C5)ccc4n3)cc12` [Compound 815, 7-[(3S)-3-(dimethylamino)pyrrolidin-1-yl]-2-(4-ethyl-6-methylpyrazolo[1,5-a]pyrazin-2-yl)-4H-pyrido[1,2-a]pyrimidin-4-one], the EC (1.5-fold increase) in experiment [1] was less than 0.1 µM. Further, in experiment [2], the “EC1.5x for Smn protein expression” value was “**** (an EC1.5x≤0.3 μM is indicated by four stars (****))” and the “maximum fold (Fold) increase” value is on record as “***** (a fold increase >1.65 is indicated by five stars (*****))”.
For the compound `Cc1cn2nc(-c3cc(=O)n4cc(C5=CCN(C6COC6)CC5)ccc4n3)cc2c(C)n1` [Compound 357, 2-(4,6-dimethylpyrazolo[1,5-a]pyrazin-2-yl)-7-[1-(oxetan-3-yl)-1,2,3,6-tetrahydropyridin-4-yl]-4H-pyrido[1,2-a]pyrimidin-4-one], in experiment [1], the EC (1.5-fold increase) was in the range of 0.1 to 0.3 µM. Moreover, in experiment [2], the “EC1.5x for Smn protein expression” value is “*** (an EC1.5× between >0.3 μM and ≤1 μM is indicated by three stars (***))”; the “maximum fold (Fold) increase” value was “**** (a fold increase between >1.5 and ≤1.65 is indicated by four stars (****))”.
